# Reference: US20120165354A1, “TREATMENT METHOD” (GLAXO WELLCOME MANUFACTURING PTE LTD., priority 2009, published 2012)
# Structures can show the parent of a compound that is named as a salt.
# What was measured:
# [1] = test system: subjects with occult or minimally classic subtypes of choroidal neovascularization due to AMD; assay: Best-corrected visual acuity (BCVA, ETDRS/AREDS procedure) in AMD patients, 28-day eye-drop study; type: in vivo, human; settings: for Change from Baseline in BCVA Day 29, Point Estimate: Overall
# Experimental: (§1) Three dosing regimens of pazopanib monohydrochloride eye drops (5 mg/mL TID, 2 mg/mL TID, 5 mg/mL QD) were administered for 28 days to 70 subjects with occult or minimally classic subtypes of choroidal neovascularization due to AMD. This study was designed to measure pharmacological activity of topically administered pazopanib in target tissues (choroid and retina) of patients with AMD by weekly evaluation of central retinal lesion thickness as measured by optical coherence tomography (OCT). In addition, the ocular and systemic safety and systemic pharmacokinetics of pazopanib treatment for 28 days were evaluated. Evaluation of efficacy was performed on an exploratory basis by weekly measurement of visual acuity, performing best-corrected visual acuity assessments at screening and day 29.
# (§2) Of the total of 70 subjects that were randomized, 28 had been previously treated with anti-angiogenic agents for treatment of macular degeneration and 42 were treatment-naïve. The protocol excluded subjects who had received any treatment for AMD within 60 days of the first dose of study medication in this trial. A total of 68 subjects completed all study assessments, of which 63 completed the assessments of Day 29 visit without receiving any rescue medication. 6 subjects received anti-VEGF rescue medication prior to the Day 29 assessment (1 of 27 in the 5 mg/ml TID arm, 2 of 27 in the 2 mg/ml TID, 3 of 16 subjects in the 5 mg QD arm, which was discontinued per protocol amendment due to feasibility.) Baseline characteristics in the study were similar between treatment groups, with the exception of age and lesion size, which were increased in the 2 mg/ml TID arm.
# Sites were trained and certified for visual acuity assessment with the standard procedure developed for the Early Treatment Diabetic Retinopathy Study (ETDRS) and adapted for the Age Related Eye Disease Study (AREDS). Best-corrected visual acuity (BCVA) measurements were performed at screening and Day 29 visits and, at other visits, use of the previous refraction for the visual acuity (VA) assessment was allowed.
# [2] = test system: subjects with occult or minimally classic subtypes of choroidal neovascularization due to AMD; assay: Optical coherence tomography central retinal thickness (OCT CRT/CRLT) in AMD patients, 28-day eye-drop study; type: in vivo, human
# Experimental: as §1, §2
# Sites were certified by a central reading center to collect images to assess Central Retinal Thickness (CRT, subretinal fluid) and Central Retinal Lesion Thickness (CRLT, subretinal fluid and neovascular lesion) on a Stratus OCT 3 instrument weekly. Values were then determined by manual measurement at the reading center. As used herein, “OCT CRLT” means optical coherence tomography central retinal/lesion thickness as determined by manual measurement of the distance between the inner and outer retina, inclusive of subretinal fluid and any choroidal neovascularization (CNV) as measured in the central 1 mm area of the 7 mm posterior pole scan. As used herein, “OCT CRT” means optical coherence tomography central retinal thickness as determined by manual measurement of the distance between the inner and outer retina inclusive of any subretinal fluid as measured in the central 1 mm area of the 7 mm posterior pole scan.
structure (smiles),measurement,setting,value
"Cc1ccc(Nc2nccc(N(C)c3ccc4c(C)n(C)nc4c3)n2)cc1S(N)(=O)=O [pazopanib monohydrochloride, 5-[[4-[(2,3-dimethyl-2H-indazol-6-yl)methylamino]-2-pyrimidinyl]amino]-2-methylbenzenesulfonamide monohydrochloride]","Change from Baseline BCVA at Day 29, BCVA LSMean (SE)","[1]; 2 mg/ml TID, CFH Y402H genotype CC, N=3",0.85 (4.07)
same,"Change from Baseline BCVA at Day 29, BCVA LSMean (SE)","[1]; 2 mg/ml TID, CFH Y402H genotype CT, N=10",−1.52 (2.24)
same,"Change from Baseline BCVA at Day 29, BCVA LSMean (SE)","[1]; 2 mg/ml TID, CFH Y402H genotype TT, N=4",5.43 (3.60)
same,change in visual acuity,"[1]; 5 mg/ml TID group only, enhanced in previously treated group and those with a T allele",Statistically significant increases
same,"Change from Baseline BCVA at Day 29, BCVA LSMean (SE)","[1]; 5 mg/ml TID, CFH Y402H genotype CC, N=7",0.36 (2.68)
same,"Change from Baseline BCVA at Day 29, BCVA LSMean (SE)","[1]; 5 mg/ml TID, CFH Y402H genotype CT, N=9",4.09 (2.38)
same,"Change from Baseline BCVA at Day 29, BCVA LSMean (SE)","[1]; 5 mg/ml TID, CFH Y402H genotype TT, N=5",6.96 (3.18)
same,"Change from Baseline in BCVA at Day 29, Point Estimate","[1]; Naïve Subjects, 2 mg/mL TID",1.16
same,"Change from Baseline in BCVA at Day 29, Point Estimate","[1]; Naïve Subjects, 5 mg/mL TID",3.38
same,"Change from Baseline in BCVA at Day 29, Point Estimate","[1]; Naïve Subjects, 5 mg/mL once daily",0.80
same,"Change from Baseline in BCVA Day 29, Point Estimate",[1]; 2 mg/mL TID,0.76
same,"Change from Baseline in BCVA Day 29, Point Estimate",[1]; 5 mg/mL QD,0.09
same,"Change from Baseline in BCVA Day 29, Point Estimate",[1]; 5 mg/mL TID,4.32
same,"Change from Baseline in BCVA at Day 29, Point Estimate","[1]; Previously Treated Subjects, 2 mg/mL TID",0.18
same,"Change from Baseline in BCVA at Day 29, Point Estimate","[1]; Previously Treated Subjects, 5 mg/mL TID",5.61
same,"Change from Baseline in BCVA at Day 29, Point Estimate","[1]; Previously Treated Subjects, 5 mg/mL once daily",−0.80
same,"Change from Baseline in Central Retinal Thickness at Day 29, CRT LSMean","[2]; 2 mg/ml TID eye drops, CFH genotype CC, N=3",22.15
same,"Change from Baseline in Central Retinal Thickness at Day 29, CRT LSMean","[2]; 2 mg/ml TID eye drops, CFH genotype CT, N=10",−14.6
same,"Change from Baseline in Central Retinal Thickness at Day 29, CRT LSMean","[2]; 2 mg/ml TID eye drops, CFH genotype TT, N=4",−45.5
same,"Change from Baseline in Central Retinal Thickness at Day 29, CRT LSMean","[2]; 5 mg/ml TID eye drops, CFH genotype CC, N=7",9.23
same,"Change from Baseline in Central Retinal Thickness at Day 29, CRT LSMean","[2]; 5 mg/ml TID eye drops, CFH genotype CT, N=9",21.51
same,"Change from Baseline in Central Retinal Thickness at Day 29, CRT LSMean","[2]; 5 mg/ml TID eye drops, CFH genotype TT, N=5",−88.8
same,mean decrease in CRT,"[2]; day 29, subjects with the CFH TT genotype, 5 mg/ml TID, statistically significant",89 micron
same,changes from baseline in OCT CRT / CRLT,[2]; overall population,no statistically significant changes from baseline
